Data on five compounds can be found in paper PMC11778240, “Synthesis and preclinical evaluation of tigilanol tiglate analogs as latency-reversing agents for the eradication of HIV” (Science Advances, 2025).

Test [1] relates to J-Lat clone 10.6 cells. The experiment in a line: J-Lat HIV latency reversal assay (GFP expression). The test is classed as cell-based, Human. The note with it: J-Lat 10.6, 48 hours; for HIV latency reversal in words: ascending concentrations. The text has this: Having shown that our lead compounds bind cell-free PKC isoforms, enter cells, translocate PKC-GFP fusion proteins, and activate NF-κB transcription factors, we next set out to determine whether our analogs were capable of reversing HIV from latency. We performed in vitro assays using T lymphocyte J-Lat clone 10.6, which contains a latent near full-length replication-incompetent integrated HIV DNA genome ([72]). J-Lat 10.6 lacks two viral genes, env and nef, which encode for the envelope protein and an accessory protein, respectively, and thus cannot initiate a spreading HIV infection. The integrated HIV provirus also encodes a GFP reporter gene, allowing latency reversal to be measured by quantification of GFP expression (fig. S1). […] In this latency reversal assay, we quantified GFP expression 48 hours after compound addition and observed bryostatin 1 to be maximally effective at concentrations of 40 nM or higher with latency reversal in 12% of cells (Fig. 8). Given the efficacy of bryostatin 1 as an LRA ([73], [74]), EBC-46 and many of its analogs tested in this J-Lat assay induced latency reversal in >90% of cells. […] SUW427, an esterase-releasable prodrug of EBC-46, also performed similarly to EBC-46 with a maximum efficacy of latency reversal in >90% of cells at a dose of 250 nM. […] The gradual release of EBC-46 from its prodrug form provides an alternative mode of administration that avoids the bolus effect associated with rapid drug administration ([17]). […] This is consistent with its lack of activity in the NF-κB activation assay and its design as a negative control as it is structurally similar to EBC-46 but unable to bind to the C1 domain of PKC at the concentrations used in this assay as it lacks a complete pharmacophore.
HIV latency reversal in-vitro assay
Human T Lymphocyte J-Lat Full Length Cell Line 10.6 (cat #9849) was obtained through the NIH HIV Reagent Program, Division of AIDS, NIAID, NIH and was contributed to the NIH HIV Reagent Program by Dr. Eric Verdin (70). J-Lat 10.6 cells were plated at 5 × 10^5 cells in 180 μL of RF10 media consisting of RPMI media supplemented with 1% Penicillin/Streptomycin and 10% Fetal Bovine Serum (FBS) in 96 -well U -bottom plates. J -Lat 10.6 cells were then stimulated for 48 hr by adding 20 μL of newly designed and synthesized tigilanol tiglate analogs, PKC modulators (bryostatin 1) as our positive control or med ia only (mock) as our negative control. Our negative control was RF10 media as the tigilanol tiglate analogs were freshly diluted with RF10 prior to plating. The final volume was 200 μL per well. Experiments were performed in three independent biological replicates, each completed in technical duplicates (n = 6). After 48 hr stimulation, 96 - well U -bottom plates were centrifuged at 296 RCF for 7 minutes to pellet cells, which were resusp ended in 200 μL of freshly prepared 2% paraformaldehyde (PFA) in PBS. GF P expression was measured 24 -hours post -fixation using the FITC channel on a LSR Fortessa (BD Biosciences) flow cytometer. Data analysis was conducted with FlowJo software version 10.8.1.

The test system of test [2] is NF-κB pathway. The experiment in a line: NF-κB activation assay, A549 cells with SEAP reporter. The test is classed as cell-based, Human. The following applies: for NF-κB activation (optical density, 630 nm): 24 hours after dosing; for NF-κB activation (optical density, 630 nm) / NF-κB activation in words: A549 cells; for NF-κB activation in words: 50 and/or 500 nM. An excerpt:
As a high-throughput method of screening compounds for their ability to get into cells and activate immunological pathways related to HIV latency reversal ([46], [70]), we conducted an NF-κB reporter assay using A549 cells stably integrated with a secreted embryonic alkaline phosphatase reporter under the control of a promoter fused to five NF-κB binding sites (Fig. 7B) ([48], [70], [71]).
Human A549-Dual™ Cells supplied by InvivoGen (Cat. code a549d-nfis) and CHO-K1 cells were passaged when about 90% confluency was reached (approximately every three days). With each passage, media was aspirated from the cell layer, which was then washed with PBS. Following aspiration of the PBS, cells were detached from the culture flask with 0.25% GibcoTM Trypsin-EDTA and transferred to a 50 mL conical, which was volumed up with complete pre-warmed DMEM (4.5 g/L glucose, 10% FBS, and 1% Pen-Strep-Glutamine (100 X, 50 mg/mL)) or Ham's F-12K (Kaighn's) Medium supplemented with 10% FBS and 1% Pen-Strep (100 X, 50 mg/mL).
This conical was spun down at 1800 rpm for 3 minutes, the supernatant was removed, and cells were resuspended in their respective fresh, pre-warmed media. To count cells, 10 μL of resuspended cells were added to a sterile microcentrifuge tube and mixed with 10 μL of trypan blue after which 10 μL of the mixture was pipetted into a Countess chamber slide. A Countess™ 3 Automated Cell Counter was subsequently utilized to determine cell viability and concentration.
1 x 10^6 cells were seeded with each passage into a T75 culture flask, and cells were incubated at […]
Human A549 lung carcinoma cells (InvivoGen Cat. code a549d-nfis), stably integrated with a secreted embryonic alkaline phosphatase (SEAP) reporter, allow for the activity of the NF-κB pathway to be monitored. The SEAP reporter is under control of the interferon β (IFN-β) minimal promoter, which is fused to five NF-κB binding sites.
5 × 10^4 A549 cells were plated on Corning® 96 Well TC-Treated Microplates (CLS3595) in 180 μl of pre-warmed DMEM (4.5 g/L glucose, 10% heat-inactivated FBS (30 min at 56 ℃), and 1% Pen-Strep-Glutamine (100 X, 50 mg/mL)). Note that if cells were grown in media containing FBS that is not heat-inactivated, media will contain alkaline phosphatase. In this case, all supernatant must thoroughly be aspirated from the cell pellet obtained after centrifugation before resuspending cells in media containing heat inactivated FBS for plating. Following incubation at 37 °C in 5% CO2 for approximately 24 hours to allow for cell adherence onto the 96 well plate, 1.8 μL of each compound dissolved in DMSO was added in quadruplicate to their respective wells to achieve a final compound concentration of 1500 nM, 500 nM, or 50 nM. 1.8 μL of DMSO was added to wells as negative controls while wells treated with EBC-46 served as positive controls. 24 hours following compound addition, 180 μL of QUANTI-BlueTM Solution (InvivoGen Cat. code rep-qbs)- medium containing QB buffer and QB Reagent for detection and quantification of alkaline phosphatase- were added into wells on a new clear flat-bottom 96-well plate. 20 μL of supernatant of either SEAP-expressing cells incubated with compound or SEAP-expressing cells incubated with DMSO only were added to the wells in the new 96-well plate containing QUANTI-BlueTM Solution. Supernatant and QUANTI-BlueTM Solution were incubated at 37 °C in 5% CO2 for approximately an hour and a half. Following incubation, optical density (OD) at 630 nm was measured for each well using a BioTek Synergy H1 microplate reader under normal read speed and with a delay of 100 msec.

Molecules are shown by their SMILES.

For the compound `C/C=C(\C)C(=O)O[C@@H]1[C@@H](C)[C@]2(O)[C@@H]3C=C(C)[C@H](OC(=O)C=C(C)C)[C@@]3(O)[C@H](O)C(CO)=C[C@H]2[C@@H]2C(C)(C)[C@]12OC(=O)[C@@H](C)CC` [SUW425], the “HIV latency reversal in words” value in test [1] was “required a higher dose than EBC-46 before we detected reversal activity”. The “NF-κB activation (optical density, 630 nm)” value in test [2] (50 nM) is reported as 0.34 optical density, 630 nm; in test [2] (500 nM), 0.47 optical density, 630 nm. Besides, the “NF-κB activation in words” value in test [2] (24 hours) is “minimal NF-κB activation at both 50 and 500 nM”.
For `CC=C(C)C(=O)OC1C(C)C2(O)C(C3OC3(COC)C(O)C3(O)C(=O)C(C)=CC32)C2C(C)(C)C12OC(=O)C(C)CC` (stereo not shown) [SUW426], the “HIV latency reversal in words” value in test [1] is recorded as “did not produce latency reversal at any tested concentration”. Moreover, the “NF-κB activation (optical density, 630 nm)” value in test [2] (50 nM) is on record as 0.23 optical density, 630 nm; in test [2] (500 nM), 0.23 optical density, 630 nm. The “NF-κB activation in words” value in test [2] (24 hours) is recorded as “did not exhibit NF-κB activation at either concentration tested”.
Turning to `C/C=C(\C)C(=O)O[C@@H]1[C@@H](C)[C@@]2(O)[C@H]([C@@H]3C(C)(C)[C@]13OC(=O)c1ccccc1)[C@@H]1O[C@]1(CO)[C@@H](O)[C@]1(O)C(=O)C(C)=C[C@H]12` [SUW428], in test [1], the “HIV latency reversal in words” value was “required a higher dose than EBC-46 before we detected reversal activity”. Moreover, the “NF-κB activation (optical density, 630 nm)” value in test [2] (50 nM) is 0.31 optical density, 630 nm; in test [2] (500 nM) it was 0.43 optical density, 630 nm. Besides, in test [2] (24 hours), the “NF-κB activation in words” value is given as “less effective at inducing NF-κB activation than EBC-46 at 500 nM”.
As for `CC[C@H](C)C(=O)O[C@@]12[C@H](OC(C)(C)C)[C@@H](C)[C@@]3(O)[C@H]([C@@H]1C2(C)C)[C@@H]1O[C@]1(CO)[C@@H](O)[C@]1(O)C(=O)C(C)=C[C@H]13` [SUW430], in test [1], the “HIV latency reversal in words” value is “required a higher dose than EBC-46 before we detected reversal activity”. The “NF-κB activation (optical density, 630 nm)” value is 0.30 optical density, 630 nm in test [2] (50 nM) and 0.67 optical density, 630 nm in test [2] (500 nM). Moreover, the “NF-κB activation in words” value in test [2] (24 hours) was “performed comparably to EBC-46 at both concentrations”.
As for `C/C=C(\C)C(=O)O[C@@H]1[C@@H](C)[C@@]2(O)[C@H]([C@@H]3C(C)(C)[C@]13OC(=O)Cc1cccc3ccccc13)[C@@H]1O[C@]1(CO)[C@@H](O)[C@]1(O)C(=O)C(C)=C[C@H]12` [SUW431], the “latency reversal, % of cells” value in test [1] (40 nM) is 90 % of cells. Further, the “HIV latency reversal in words” value in test [1] was “effectively activates latent HIV at substantially lower concentrations than EBC-46”. Further, the “NF-κB activation, times the basal level (DMSO control)” value in test [2] (50 nM, 24 hours) is “approximately three”. For the same compound, the “NF-κB activation (optical density, 630 nm)” value is reported as 0.74 optical density, 630 nm in test [2] (50 nM) and 0.65 optical density, 630 nm in test [2] (500 nM). In addition, in test [2] (24 hours), the “NF-κB activation in words” value is recorded as “strong activation of NF-κB at higher concentrations but with an inverse dose response”.
